“Also recorded” adds a separate entry of the source.
Tests used:
Assay type in all cases: cell-based, human
[1] = tested on: Fibroblast (non-cancer cells); assay: Sulforhodamine B (SRB) cytotoxicity assay on fibroblasts; details: increasing concentration, 72 h
Protocol: PANC-1, CFPAC-1, CAPAN-1, MIAPaCa-2, BXPC-3 and fibroblast cells were seeded for 24 h and were exposed to increasing concentration of Pimozide and vehicle for 72 h (FIG. 3A). The same procedure was followed for treatment of cancer cell lines with L741 (FIG. 3B). Cell viability was characterized using a SRB assay. Values are the mean+/−SD of six independent experiments.
Five pancreatic ductal cancer cell lines with various degree of differentiation were obtained from American Type Culture Collection (Rockville, USA) and Normal Human Dermal Fibroblasts (NHDF) obtained from PromoCell. BXPC-3 (moderately differentiated) as well as poorly differentiated human pancreatic cancer cell lines, PANC-1 and MIAPaCa-2, have been established from primary tumor. AsPC-1, CAPAN-1 and CFPAC-1 which represent well differentiated cell lines was isolated from ascites and liver metastasis of pancreas adenocarcinoma. All cell lines contain mutation in P53 whereas K-ras mutation reported in all with the exception of BxPc3. BRCA2 mutation just reported in CAPAN-1 cells.
Sulforhodamine B sodium salt (sigma) was used to assess cell viability and IC50 determination of pancreatic cancer cells. […] Cell viability was specified by using plate reader (TECAN) with measuring of absorbance at 570 and 650 nm (background) in treated or untreated 96 well plate.

MIAPaCa-2 cells = assay: Transwell (Boyden chamber) migration assay, MIAPaCa-2; details: MIAPaCa-2, Boyden chamber, increasing doses, 4 h
Protocol: MIAPaCa-2 cells were platted on transwells and exposed to increasing doses of Pimozide for 4 h (FIG. 7A). Migrated cells were measured and normalized to their controls. Values are the mean+/−SD of four replicate.
This assay for confirmation of cell migration was performed using 96-well Costar Transwell chambers with 8.0 μm pore polycarbonate membranes (Corning Inc., Corning, N.Y.). Cell culture inserts transwells were placed in wells of 96 well plate. The bottom chambers were filled with 120 μl of cell culture medium containing 10% FBS. Cells suspended in 70 μl serum free medium with DMSO as negative control or drugs were added to the upper part of each chamber followed by incubation at 37° C. with 5% CO2. After 4 h the medium was aspirated from the top of chambers and the bottom side of chambers washed with PBS. Those that have penetrated to the bottom side of the membrane were detached with 0.25% tryspin/EDTA during 3 min (37° C.) followed by inactivation of trypsine with soybean (Sigma Aldrich). […] Six replicates were performed for each treatment condition to predict the responder outcome variable and the luminescence signal which is corresponding to the number of live suspended cells was measured. Graph was plotted according to the readings obtained. […]

[2] = tested on: MIAPaCa-2, PANC-1 and AsPC-1 cells; assay: Glucose uptake measurement (labelled 2-DG) in PDAC cell lines; details: all three cell lines; relative to DMSO control
Description: (§1) Measurement of 2-deoxy-D-glucose uptake shown on the y-axis relative to control by PDAC cell lines (MIAPaCa2, left; PANC-1, middle; AsPC1, right) treated with DMSO (C), pimozide (P) or haloperidol (H) (FIG. 10A). Abundance of free cholesterol, as measured by staining with filipin, after treatment with haloperidol (H) or pimozide (P) in PDAC cell lines (MIAPaCa2, left; PANC-1, middle; AsPC1, right) (FIG. 10B top). Representative micrographs of filipin-labelled cholesterol. PDAC (MIAPaCa2, top; PANC-1, middle; AsPC1, bottom) cells were seeded for 24 hours and treated with 10 μM haloperidol (H) or pimozide (P) or DMSO for 18 hours (FIG. 10B bottom). Red-fluorescence represents propidium iodide (PI)-stained nuclei and blue-fluorescence represents filipin-stained cholesterol. mRNA levels of genes relative to R-actin shown on the y-axis involved in cholesterol biosynthesis (from left to right: SREBP1, SREBP2, INSIG1, HMGCR, LDLR) measured by qRT-PCR 18 hours post-treatment with DMSO (C), haloperidol (H) or pimozide (P) in three PDAC cell lines (MIAPaCa2, top; PANC-1, middle; AsPC1, bottom) (FIG. 10C).
The induction effect of pimozide or haloperidol on labeled 2-DG uptake in cancer cells were determined from measurement of the fluorescence intensity of cell lysates. […]

[3] = tested on: MIAPaCa-2, PANC-1 and AsPC-1 cells; assay: Free cholesterol measurement (Filipin staining) in PDAC cell lines; details: 10 μM, 18 hours; vs DMSO
Description: as §1
Cancer cells were seeded for 24 hours and treated with pimozide, haloperidol or DMSO for 18 hours. The cells were fixed with paraformaldehyde, stained with Filipin™ and propidium iodide (PI), and photographed. Filipin™ is a fluorescent polyene antibiotic that binds to free cholesterol. […]

With `O=c1[nH]c2ccccc2n1C1CCN(CCCC(c2ccc(F)cc2)c2ccc(F)cc2)CC1` [pimozide] the “cell viability of fibroblasts versus cancer cells” value [1] was “not as much to Fibroblast”, the migrated cells (MIAPaCa-2 cells) was “significantly reduced migrated cells; also recorded: dose dependent inhibitory effect” and the “glucose uptake (intracellular labelled 2-deoxy-D-glucose)” value [2] was “elevated uptake of glucose; also recorded: enhanced glucose and cholesterol uptake”. The “abundance of free cholesterol (Filipin staining)” value [3] was “increased the abundance of free cholesterol; also recorded: enhanced glucose and cholesterol uptake”.

— US10874685B2, “Pancreatic cancer therapy and diagnosis” (Deutsches Krebsforschungszentrum Stiftung des Öffentlichen …, priority 2014, dated 2020)
